According to the supplement of paper PMC9763283:

Legend:
Experiment in all cases: area under growth-rate inhibition curve (AUC GRI) (dimensionless (GR-based AUC)); higher = less growth inhibition
Conditions in all cases: exposure time: 72 h; concentrations: 0.1, 1, 10 uM
BT474-LTR = tested on: BT474-LTR
Method in brief: (§1)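 The area under the growth-rate inhibition curve was measured in six breast cancer cell line models, covering triple-negative lines and HER2+ lines, both parental and resistant to a two-drug combination. Cells were exposed to compound at 0.1, 1 or 10 µM for 72 h, fixed in 4% paraformaldehyde, and nuclei were stained with Hoechst 33342 or DAPI for imaging and counting. Day 0 plates, untreated Day 3 plates and DMSO controls served to correct growth across 2 biological replicates.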

SKBR3-P = tested on: SKBR3-P
Method in brief: as §1

MDA-MB-468 = tested on: MDA-MB-468
Method in brief: as §1

BT474-P = tested on: BT474-P
Method in brief: as §1

MDA-MB-231 = tested on: MDA-MB-231
Method in brief: as §1

SKBR3-LTR = tested on: SKBR3-LTR
Method in brief: as §1

Row | Structure (SMILES) | area under growth-rate inhibition curve (BT474-LTR) | area under growth-rate inhibition curve (SKBR3-P) | area under growth-rate inhibition curve (MDA-MB-468) | area under growth-rate inhibition curve (BT474-P) | area under growth-rate inhibition curve (MDA-MB-231) | area under growth-rate inhibition curve (SKBR3-LTR)
1 | Br.Cc1ccc(Sc2ccccc2N2CCNCC2)c(C)c1 | 0.912 | 0.872 | 0.885 | 0.865 | 0.879 | 0.929
2 | CC(C)N(CCC(c1ccccc1)c1cc(CO)ccc1O)C(C)C (stereo not given) | 1.06 | 0.957 | 1.04 | 1.04 | 1.03 | 1.03
3 | CC(C)c1cc(-c2ccc(F)c3ccccc23)nc(N)n1 | 1.08 | 1.03 | 1 | 1.03 | 0.999 | 1.07
4 | CCCCOc1ccc(C(=O)Nc2ccc(F)cc2F)cc1 | 1.06 | 1.01 | 1.01 | 1.02 | 1.02 | 1.05
5 | CCCN1CCO[C@H]2c3cc(O)ccc3OC[C@@H]21 | 1.06 | 1.03 | 1.03 | 1.08 | 1.02 | 1.05
6 | CCc1c(C(=O)NCCc2ccc(N3CCCCC3)cc2)[nH]c2ccc(Cl)cc12 | 1.06 | 0.994 | 0.994 | 1.04 | 1.02 | 1.09
7 | Cc1cc(NC(=O)Nc2ccc(N(C)C)cc2)c2cc(F)cc(F)c2n1 | 0.977 | 1 | 0.951 | 0.963 | 0.936 | 0.958
8 | CN1CCC(c2c[nH]c3ccc(O)cc23)CC1 | 0.996 | 1.02 | 0.984 | 0.996 | 1 | 0.997
9 | CN1CCN(C(=O)c2cc3cc(Cl)ccc3[nH]2)CC1 | 1.06 | 0.993 | 1.04 | 1.02 | 1.04 | 1.05
10 | CN1CCN(c2nc3ccccc3nc2Cl)CC1 | 1.01 | 0.987 | 0.986 | 0.997 | 0.97 | 1.01
11 | CNCc1ccc(C)c(NC(=O)c2ccc(Nc3nc(-c4ccccc4)c4ccccc4n3)cc2)c1 | 1.08 | 0.876 | 0.856 | 0.853 | 0.877 | 0.914
12 | COc1cc(NC(=O)c2ccccn2)ccc1Cl | 1.07 | 0.979 | 1.01 | 1.01 | 1.05 | 1.05
13 | COc1cc(OC)c(NC(=O)Nc2cc(C)on2)cc1Cl | 1.05 | 1 | 1.02 | 0.977 | 1.03 | 1.06
14 | COc1ccc(NS(=O)(=O)c2sc3ccc(Cl)cc3c2C)cc1N1CCNCC1 | 1.03 | 0.997 | 0.964 | 0.976 | 1.05 | 1.05
15 | COc1ccccc1N1CCN(CCN(C(=O)C2CCCCC2)c2ccccn2)CC1.O=C(O)/C=C\C(=O)O | 1.06 | 0.976 | 0.993 | 1.02 | 1.03 | 1.04
16 | Cc1nc(C#Cc2ccnc(Cl)c2)c(C)n1-c1ccc(OC(F)(F)F)cc1 | 1.09 | 1 | 1 | 0.969 | 1.03 | 0.968
17 | CC1CCN(CCC2CCCN2S(=O)(=O)c2cccc(O)c2)CC1.Cl (stereo not given) | 1.06 | 1 | 1.02 | 1.04 | 1.02 | 1.05
18 | O=C(NCc1ccncc1)C12CC3CC(C1)CC(c1ccc(Cl)cc1)(C3)C2 | 1.08 | 1.02 | 1.01 | 0.985 | 1.04 | 1.04
19 | O=C(Nc1cccc(Cl)c1)c1ccccn1 | 1.06 | 1.01 | 1.02 | 1.02 | 1.03 | 1.04
20 | O=C(NCC1CCOCC1)c1cnc(Nc2ccc(Cl)cc2Cl)nc1C(F)(F)F | 1.04 | 1.02 | 1.01 | 0.983 | 1 | 1.05
21 | O=C(c1ccc(F)cc1)N1CCC[C@H](c2nc(-c3ccc(F)cc3)no2)C1 | 1.07 | 1.01 | 1.04 | 1.02 | 1.01 | 1.11
22 | Nc1nc(NCCc2ccc(O)cc2)nc2nc(-c3ccco3)nn12 | 1.03 | 0.822 | 0.973 | 1.01 | 1.03 | 0.956
23 | Nc1nc2c(cnn2CCc2ccccc2)c2nc(-c3ccco3)nn12 | 0.94 | 0.666 | 0.781 | 0.99 | 1 | 0.902

Row | Structure (SMILES) | area under growth-rate inhibition curve (BT474-LTR) | area under growth-rate inhibition curve (SKBR3-P) | area under growth-rate inhibition curve (MDA-MB-468) | area under growth-rate inhibition curve (BT474-P) | area under growth-rate inhibition curve (MDA-MB-231) | area under growth-rate inhibition curve (SKBR3-LTR)
24 | O=S(=O)(c1ccccc1)c1cnc2c(N3CCNCC3)cccc2c1 | 1.08 | 0.997 | 1.01 | 0.99 | 1.03 | 1.05
25 | N#Cc1cc(CN2CCC(Nc3ncnc4sc(Cl)cc34)CC2)ccc1F.O=C(O)/C=C\C(=O)O | 0.875 | 0.839 | 0.885 | 0.879 | 0.988 | 0.964
26 | OC[C@H]1O[C@@H](c2ccc(Cl)c(Cc3ccc(O[C@H]4CCOC4)cc3)c2)[C@H](O)[C@@H](O)[C@@H]1O | 1.07 | 1.03 | 1.05 | 1.03 | 1.03 | 1.09
27 | Cc1ccc(OCC(O)C(C)NC(C)C)c2c1CCC2.[Cl-].[H+] (stereo not given) | 1.11 | 1.01 | 1.05 | 1.04 | 1.06 | 1.07
28 | CCNC1(C(N)=O)CCN(c2ncnc3c2nc(-c2ccccc2Cl)n3-c2ccc(Cl)cc2)CC1.[Cl-].[H+] | 1.06 | 1.01 | 1 | 0.991 | 0.999 | 1.04
29 | OC(CN1CCN(c2cccc(Cl)c2)CC1)C(c1ccccc1)c1ccccc1.[Cl-].[Cl-].[H+].[H+] (stereo not given) | 1.07 | 0.982 | 0.981 | 1.04 | 1.04 | 1.05
30 | O=C1CCCC2C3CCCN4CCCC(CN12)C34 (single isomer, unassigned; (+)) [(+)-Matrine] | 1.08 | 1.02 | 1.01 | 1.06 | 1.03 | 1.09
31 | CCC(=C(c1ccc(O)cc1)c1ccc(OCCN(C)C)cc1)c1ccccc1 [4-hydroxytamoxifen] | 0.936 | 0.979 | 0.896 | 0.865 | 0.935 | 0.934
32 | Nc1ncnc2c1c(I)cn2[C@@H]1O[C@H](CO)[C@H](O)C1O (stereo not given in full) [5-Iodotubercidin] | 0.673 | 0.632 | 0.73 | 0.676 | 0.705 | 0.627
33 | CCN(CC)CCCCN1c2ccccc2Oc2ccc(Cl)cc21.Cl [10-DEBC hydrochlorid] | 0.995 | 1.04 | 1.06 | 1.04 | 1.04 | 1.05
34 | CC(=O)[C@@]1(O)CC[C@H]2[C@@H]3CCC4=CC(=O)CC[C@]4(C)[C@H]3CC[C@@]21C [17-Hydroxyprogesterone] | 1.07 | 1 | 1 | 1.02 | 1.02 | 1.03
35 | C[C@@]12N[C@@H](Cc3ccccc31)c1ccccc12.O=C(O)/C=C/C(=O)O [(-)-MK 801 Maleate] | 1.08 | 1.03 | 1.04 | 1.03 | 1.03 | 1.06
36 | CN1CCc2cccc3c2[C@H]1Cc1ccc(O)c(O)c1-3.[Cl-].[H+] [(R)-(-)-Apomorphine hydrochloride] | 0.963 | 0.965 | 0.977 | 0.933 | 1.03 | 1.04
37 | CCN(CC)C(=O)c1ccc(C2=CC3(CCNCC3)Oc3cccc(O)c32)cc1.Cl [ADL5859 HCl] | 1.07 | 1.03 | 1.04 | 1.05 | 1.03 | 1.1
38 | CN1CCCCC1Cn1cc(C(=O)c2cc([N+](=O)[O-])ccc2I)c2ccccc21 (stereo not given) [AM1241] | 1 | 0.998 | 0.972 | 0.977 | 0.987 | 1.02
39 | CC(=O)NCCCS(=O)(=O)[O-].CC(=O)NCCCS(=O)(=O)[O-].[Ca+2] [Acamprosate calcium] | 1.01 | 1.01 | 1 | 1.01 | 0.995 | 1.03
40 | CCCC(=O)Nc1ccc(OCC(O)CNC(C)C)c(C(C)=O)c1.[Cl-].[H+] (stereo not given) [Acebutolol HCl] | 1.11 | 1.04 | 1.03 | 1.05 | 1.03 | 1.07
41 | CC(=O)OCC[N+](C)(C)C.[Cl-] [Acetylcholine Chloride] | 1.09 | 1.02 | 1.04 | 1.03 | 1.04 | 1.05
42 | O=C(OC1C[N+]2(CCCOc3ccccc3)CCC1CC2)C(O)(c1cccs1)c1cccs1.[Br-] (stereo not given) [Aclidinium Bromide] | 0.997 | 0.988 | 1.03 | 1.01 | 1.03 | 1.02
43 | CNCC(=O)c1ccc(O)c(O)c1.Cl [Adrenalone HCl] | 1.1 | 1.03 | 1.02 | 1.04 | 0.964 | 1.07
44 | COc1cc2nc(N(C)CCCNC(=O)C3CCCO3)nc(N)c2cc1OC.[Cl-].[H+] (stereo not given) [Alfuzosin HCl] | 1.09 | 1.01 | – | 1.03 | – | –
45 | CNCCCN1c2ccccc2CCc2ccccc21.Cl [Desipramine hydrochloride] | 0.997 | – | – | 0.985 | 1.03 | 1.06
46 | CCCCC(=O)N(Cc1ccc(-c2ccccc2-c2nnn[nH]2)cc1)[C@H](C(=O)O)C(C)C [Valsartan] | 1.02 | 1.02 | 1.04 | 0.974 | 1.04 | –
